Activity calls are given as the source filed them. No stated cut-off is given here; in the data, actives have a measured IC50 and inactives only a lower limit.

In the assay the target is Envelope glycoprotein gp160 (Human immunodeficiency virus 1, UniProt Q6QLK5). Nature of the assay: cell-free HIV fusion peptide-binding blockers – biochemical, uHTS, fluorescence dequenching, […] (AID 1986).
Sequence of Envelope glycoprotein gp160 (Q6QLK5 whole entry, the tested form may be a part): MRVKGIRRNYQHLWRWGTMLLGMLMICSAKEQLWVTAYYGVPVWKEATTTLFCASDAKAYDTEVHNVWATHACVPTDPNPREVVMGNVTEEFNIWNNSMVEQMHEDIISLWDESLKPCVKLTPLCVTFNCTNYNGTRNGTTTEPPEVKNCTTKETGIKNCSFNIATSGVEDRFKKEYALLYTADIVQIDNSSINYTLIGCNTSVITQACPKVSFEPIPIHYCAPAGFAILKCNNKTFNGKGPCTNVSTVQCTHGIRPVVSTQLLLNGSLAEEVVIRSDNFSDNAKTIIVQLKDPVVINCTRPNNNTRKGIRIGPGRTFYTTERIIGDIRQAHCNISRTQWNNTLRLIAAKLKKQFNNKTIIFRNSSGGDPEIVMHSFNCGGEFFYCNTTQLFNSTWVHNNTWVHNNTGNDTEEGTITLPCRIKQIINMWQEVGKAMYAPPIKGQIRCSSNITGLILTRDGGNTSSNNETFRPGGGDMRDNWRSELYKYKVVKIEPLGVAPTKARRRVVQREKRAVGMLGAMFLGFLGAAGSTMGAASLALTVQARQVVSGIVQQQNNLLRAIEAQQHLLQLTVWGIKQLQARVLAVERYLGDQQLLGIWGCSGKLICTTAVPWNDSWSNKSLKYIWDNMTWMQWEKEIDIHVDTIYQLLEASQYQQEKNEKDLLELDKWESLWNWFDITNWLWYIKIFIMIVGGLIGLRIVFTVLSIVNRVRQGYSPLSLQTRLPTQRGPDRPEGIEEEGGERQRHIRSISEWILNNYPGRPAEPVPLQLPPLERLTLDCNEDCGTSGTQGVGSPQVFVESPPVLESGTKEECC
As a reminder, the IC50 is the concentration at which inhibition is half-maximal. In the case of `O=C(O)c1cc(NN=C2c3ccccc3-c3ccccc32)ccc1Cl`, the IC50 was 23.7 µM (active).
In the case of `CCOc1cc(/C=C2\SC(=S)N(C(C(=O)O)c3ccccc3)C2=O)ccc1O` (stereo not drawn), the IC50 is 22.6 µM (active).
Regarding `Cc1ccc(-c2cc(C(=O)Nc3ccc(S(=O)(=O)Nc4onc(C)c4C)cc3)c3ccccc3n2)cc1`, the IC50 was 18.1 µM (active).

Values taken from ChEMBL document CHEMBL1201862, “PubChem BioAssay data set” (2004).
